Tests used:
[1] = after oral administration; cited from earlier work
[2] = Emulsion formation of Form-81 with sodium oleate from different sources; assay type: physicochemical; settings: Form-81 with sodium benzoate, after mixing oil and water phases and stirring
Protocol: The solution was heated to about 55-68° C., while stirring aprepitant was added and continued stirring until all of the drug is dissolved. After cooling to room temperature, Sodium oleate was added to mixture and stirred to get uniform dispersion. Ethanol quantity adjusted by adding ethanol to mixture to compensate loss. Weight of container was recorded at each stage.
Oil phase slowly added to water phase slowly while water phase stirred at 1000 RPM using overhead stirrer.
Coarse emulsion was milled using microfluidizer (Microfluidizer LM-25/30), […].

[3] = pH and clarity of 5.55 mg/mL sodium oleate solution; assay type: physicochemical; settings: sodium oleate 5.55 mg/mL solution
Protocol: After the initial pH measurement discussed above, the compositions of this embodiment have a pH value of at least 7.5. In some embodiments the PH is in the range of between 7.5-10.5 or between 8.5-10.8. This pH value is observed a short period, e.g. a few days, after formation of the emulsion, and is to be contrasted with the initial pH value which is measured substantially immediately after the formation of the emulsion. Preferably, the fatty acid content of the oleate is high, e.g. at least about 80% and the alkalinity of oleate when tested as an aqueous solution is also relatively high, e.g. at least about pH of 10.3 of 0.55% W/V solution in water.

C[C@@H](O[C@H]1OCCN(Cc2n[nH]c(=O)[nH]2)[C@H]1c1ccc(F)cc1)c1cc(C(F)(F)F)cc(C(F)(F)F)c1 [Aprepitant]
oral bioavailability [1]: about 69%

CCCCCCCC/C=C\CCCCCCCC(=O)[O-].[Na+] [Sodium Oleate from Doosan, South Korea, Sodium Oleate]
Emulsion formation [2]: slightly viscous emulsions
Clarity [3]: Clear solution

CCCCCCCC/C=C\CCCCCCCC(=O)[O-].[Na+] [Sodium Oleate from Lipoid, Germany, Sodium Oleate]
Emulsion formation [2]: slightly viscous emulsions
Clarity [3]: Hazy solution
pH of 5.55 mg/mL solution [3]: 10.36

CCCCCCCC/C=C\CCCCCCCC(=O)[O-].[Na+] [Sodium Oleate from Loba Chemie, India, Sodium Oleate]
Emulsion formation [2]: Free flowing emulsion.
Emulsion formation ([2]; listed as oleate from Loba Chemie): free-flowing emulsion
Clarity [3]: Clear solution
pH of 5.55 mg/mL solution [3]: 10.78

Source: patent publication US20240398706A1, “INJECTABLE FORMULATIONS OF APREPITANT” (Good Health, LLC, priority 2021, published 2024)
